Test: CO release through pig ear skin
Assay type: in vitro ADME
Procedure: Pig ear skin was purchased from a butcher and prepared immediately after delivery. Skin was carefully removed from the remaining fat and cartilage. Subsequent to the preparation, the skin was clamped between the top and bottom compartment of the test cell. Sealing was ensured by screw clamps and a sealing ring (FIG. 5A).
For the experiment 15 mg of tri-sodium Beck-1 ((Mo(CO)3(CNCH2CO2Na)3) were placed in the bottom compartment of the test cell and dissolved in 4 mL H2O. CO release was activated by adding 1 mL of iron(III)chloride solution (350 mg/mL) to the tri-sodium Beck-1. CO release through the pig skin was measured over a time period of 1000 minutes.
The data shown in FIG. 6 illustrates that CO release trough the pig skin is a slow process and reaches plateau in the raw data at around 500 minutes and stays at that plateau of 200 ppm CO for another 500 minutes until the end of the experiment. A plateau in the raw data means that the sensor consumption of CO is at the same rate as the release through the skin. To correct for the sensor consumption, CO release data of tri-sodium Beck-1 without any limiting membranes were used to calculate the consumption rate of the sensor.

[C-]#[O+] [CO, carbon monoxide]
CO release through the pig skin, maximum in the corrected data (15 mg tri-sodium Beck-1 activated with iron(III)chloride, at 1000 minutes, corrected for sensor consumption of CO): 340 ppm | CO release through the pig skin, plateau in the raw data (15 mg tri-sodium Beck-1 in 4 mL H2O activated with 1 mL iron(III)chloride solution (350 mg/mL), averaged raw data (n=2), plateau held until 1000 minutes): 200 ppm | time at which CO release through the pig skin reaches plateau in the raw data (15 mg tri-sodium Beck-1 in 4 mL H2O activated with 1 mL iron(III)chloride solution (350 mg/mL), raw data): around 500 minutes
